Source: patent US20230265151A1, “GIP/GLP1 CO-AGONIST COMPOUNDS” (priority 2020, published 2023)
Like-named read-outs stand apart in the source and are kept apart here. *1 amine or outer side, *2 acyl side, *3 side chain or, on linkers, in order; H or OH if unused. Where a SMILES comes first, the peptide text is derived from it. Side-chain parts run from the residue outwards. [ ]: non-standard residue; d: D form. The star is where a group is joined. αMePhe(2-F) = C[C@](N)(Cc1ccccc1F)C(=O)O; γGlu = O=C(O)[C@H](CCC(=O)[*:2])N[*:1]; αMeY = C[C@](N)(Cc1ccc(O)cc1)C(=O)O; αMeL = CC(C)C[C@](C)(N)C(=O)O; Lauroyl = CCCCCCCCCCCC(=O)*; Orn = NCCC[C@H](N)C(=O)O; AEEA = NCCOCCOCC(=O)O; Aib = CC(C)(N)C(=O)O

What was measured:
Format in all cases: cell-based
hGIPR = target: T1, hGIPR (Homo sapiens, UniProt P48546); experiment: Functional cAMP formation (HTRF) in HEK-293 clonal cells expressing hGIPR, 0.1% bovine casein, without or with 1.0% human serum albumin; details: for Emax: percent of maximal response to GIP(1-42)NH2; for EC50: geometric mean
T1 construct: expressed in transfected cells
T1 sequence (P48546 22-466): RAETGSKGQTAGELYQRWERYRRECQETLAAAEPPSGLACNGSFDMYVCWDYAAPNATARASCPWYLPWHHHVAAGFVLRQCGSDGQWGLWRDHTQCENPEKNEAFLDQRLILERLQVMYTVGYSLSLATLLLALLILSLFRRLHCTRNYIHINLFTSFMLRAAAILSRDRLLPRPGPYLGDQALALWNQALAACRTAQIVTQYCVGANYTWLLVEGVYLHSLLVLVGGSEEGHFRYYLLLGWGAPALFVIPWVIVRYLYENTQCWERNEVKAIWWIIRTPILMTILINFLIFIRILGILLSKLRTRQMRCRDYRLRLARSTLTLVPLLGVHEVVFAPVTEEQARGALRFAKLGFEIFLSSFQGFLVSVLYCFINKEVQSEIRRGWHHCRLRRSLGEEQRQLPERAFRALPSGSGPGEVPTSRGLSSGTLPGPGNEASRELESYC
Procedure, shortened: (§1)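 Cells were stimulated with peptide for 30 min at 37° C, then lysed in buffer carrying cAMP-d2 and anti-cAMP Eu3+-cryptate for a competitive HTRF read after at least 60 min at room temperature. The 665/620 nm ratio was converted to nM cAMP against a standard curve.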

hGCGR = target: T2, hGCGR (Homo sapiens, UniProt P47871); experiment: Functional cAMP formation (HTRF) in HEK-293 clonal cells expressing hGCGR, 0.1% bovine casein, without or with 1.0% human serum albumin; details: 37° C., geometric mean
T2 construct: expressed in transfected cells
T2 sequence (P47871 26-477): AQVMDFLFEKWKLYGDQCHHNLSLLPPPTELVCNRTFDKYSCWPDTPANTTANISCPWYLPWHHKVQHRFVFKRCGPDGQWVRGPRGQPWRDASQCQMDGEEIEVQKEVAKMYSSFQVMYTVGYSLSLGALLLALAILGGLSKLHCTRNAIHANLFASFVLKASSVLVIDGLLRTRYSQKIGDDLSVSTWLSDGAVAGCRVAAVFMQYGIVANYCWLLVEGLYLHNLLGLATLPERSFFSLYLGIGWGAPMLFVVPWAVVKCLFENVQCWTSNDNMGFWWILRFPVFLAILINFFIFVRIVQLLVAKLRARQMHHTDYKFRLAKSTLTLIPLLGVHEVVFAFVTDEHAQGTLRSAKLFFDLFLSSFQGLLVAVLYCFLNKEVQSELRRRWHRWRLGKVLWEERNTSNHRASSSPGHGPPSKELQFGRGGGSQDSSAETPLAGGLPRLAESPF
Procedure, shortened: as §1

hGLP-1R = hGLP-1R (Homo sapiens, UniProt P43220); experiment: Functional cAMP formation (HTRF) in HEK-293 clonal cells expressing hGLP-1R, 0.1% bovine casein, without or with 1.0% human serum albumin; parameters: expressed in transfected cells; details: for Emax: percent of maximal response to GLP-1(7-36)NH2; for EC50: geometric mean, read-out: hGLP-1R EC50, nM (SEM, n)
hGLP-1R, sequence (P43220 24-463): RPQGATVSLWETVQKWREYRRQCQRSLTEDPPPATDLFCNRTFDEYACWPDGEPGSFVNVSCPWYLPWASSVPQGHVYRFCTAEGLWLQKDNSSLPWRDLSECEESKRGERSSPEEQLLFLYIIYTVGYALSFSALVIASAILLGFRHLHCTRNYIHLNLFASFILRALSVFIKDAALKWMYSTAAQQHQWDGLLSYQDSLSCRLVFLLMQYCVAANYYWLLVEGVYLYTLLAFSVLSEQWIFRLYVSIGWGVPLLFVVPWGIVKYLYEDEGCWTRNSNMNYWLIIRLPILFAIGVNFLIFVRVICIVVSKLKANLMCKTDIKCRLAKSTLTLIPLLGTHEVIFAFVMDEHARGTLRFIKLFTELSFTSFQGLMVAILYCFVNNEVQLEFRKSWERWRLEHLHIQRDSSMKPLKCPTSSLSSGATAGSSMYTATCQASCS
Procedure, shortened: as §1

[1] = HEK293, 0.1% bovine casein and 1.0% human serum albumin, 37° C., read-out: hGIPR Emax, % ± SEM
[2] = HEK293, cAMP, 37° C., 0.1% bovine casein, arithmetic mean, read-out: hGIPR Emax, % ± SEM
[3] = cAMP, 37° C., 0.1% bovine casein (no human serum albumin), read-out: hGIPR EC50, nM (SEM, n)
[4] = 0.1% bovine casein and 1.0% human serum albumin, read-out: hGCGR EC50, nM (SEM, n)
[5] = cAMP, 0.1% bovine casein (no human serum albumin), read-out: hGCGR EC50, nM (SEM, n)
[6] = HEK293, 0.1% bovine casein and 1.0% human serum albumin, 37° C., read-out: hGLP-1R Emax, % ± SEM
[7] = HEK293, cAMP, 37° C., 0.1% bovine casein, arithmetic mean, read-out: hGLP-1R Emax, % ± SEM
[8] = 0.1% bovine casein and 1.0% human serum albumin, 37° C., read-out: hGIPR EC50, nM (SEM, n)
[9] = cAMP, 37° C., 0.1% bovine casein (no human serum albumin)

EC50 (hGLP-1R; 0.1% bovine casein and 1.0% human serum albumin, 37° C.)	SMILES	Emax (hGIPR; HEK293, read-out: hGIPR Emax, % ± SEM, 0.1% bovine casein and 1.0% human serum albumin, 37° C.)	Emax (hGIPR; HEK293, read-out: hGIPR Emax, % ± SEM, cAMP, 37° C., 0.1% bovine casein, arithmetic mean)	EC50 (hGIPR; hGIPR EC50, nM (SEM, n), cAMP, 37° C., 0.1% bovine casein (no human serum albumin))	EC50 (hGCGR; hGCGR EC50, nM (SEM, n), 0.1% bovine casein and 1.0% human serum albumin)	EC50 (hGCGR; hGCGR EC50, nM (SEM, n), cAMP, 0.1% bovine casein (no human serum albumin))	Emax (hGLP-1R; HEK293, read-out: hGLP-1R Emax, % ± SEM, 0.1% bovine casein and 1.0% human serum albumin, 37° C.)	Emax (hGIPR; [1])	Emax (hGIPR; [2])	EC50 (hGIPR; [3])	EC50 (hGCGR; [4])	EC50 (hGCGR; [5])	Emax (hGLP-1R; [6])	Emax (hGLP-1R; [7])	EC50 (hGIPR; [8])	EC50 (hGLP-1R; [9])
	CC[C@H](C)[C@H](NC(=O)[C@H](CCCN)NC(=O)[C@H](CC(=O)O)NC(=O)[C@H](CC(C)C)NC(=O)[C@](C)(CC(C)C)NC(=O)[C@@H](NC(=O)[C@H](CO)NC(=O)[C@H](Cc1ccncc1)NC(=O)[C@H](CC(=O)O)NC(=O)[C@H](CO)NC(=O)[C@@H](NC(=O)[C@](C)(Cc1ccccc1F)NC(=O)[C@@H](NC(=O)CNC(=O)[C@H](CCC(=O)O)NC(=O)C(C)(C)NC(=O)[C@@H](N)Cc1ccc(O)cc1)[C@@H](C)O)[C@@H](C)O)[C@@H](C)CC)C(=O)N[C@@H](C)C(=O)N[C@@H](CCC(N)=O)C(=O)NC(C)(C)C(=O)N[C@@H](CCCCNC(=O)COCCOCCNC(=O)COCCOCCNC(=O)CC[C@H](NC(=O)CCCCCCCCCCOc1ccc(C(=O)O)cc1)C(=O)O)C(=O)N[C@@H](Cc1ccccc1)C(=O)N[C@H](C(=O)N[C@H](CCC(=O)O)C(=O)N[C@@](C)(Cc1ccc(O)cc1)C(=O)N[C@@H](CC(C)C)C(=O)N[C@H](C(=O)N[C@@H](CCC(=O)O)C(=O)NCC(=O)NCC(=O)N1CCC[C@H]1C(=O)N[C@@H](CO)C(=O)N[C@@H](CO)C(=O)NCC(=O)N[C@@H](C)C(=O)N1CCC[C@H]1C(=O)N1CCC[C@H]1C(=O)N1CCC[C@H]1C(=O)N[C@@H](CO)C(=O)N[C@@H](CCCCNC(=O)COCCOCCNC(=O)COCCOCCNC(=O)CC[C@H](NC(=O)CCCCCCCCCCOc1ccc(C(=O)O)cc1)C(=O)O)C(N)=O)[C@@H](C)CC)[C@@H](C)CC [Example 288]	85.2%	110%	0.0219 nM	> 9950 nM	> 9950 nM	123%									
	CCCCCCCCCCCC(=O)N[C@@H](CCC(=O)NCCOCCOCC(=O)NCCOCCOCC(=O)NCCCC[C@H](NC(=O)[C@H](CCCN)NC(=O)[C@H](CC(=O)O)NC(=O)[C@H](CC(C)C)NC(=O)[C@](C)(CC(C)C)NC(=O)[C@@H](NC(=O)[C@H](CO)NC(=O)[C@H](Cc1ccc(OC)cc1)NC(=O)[C@H](CC(=O)O)NC(=O)[C@H](CO)NC(=O)[C@@H](NC(=O)[C@](C)(Cc1ccccc1F)NC(=O)[C@@H](NC(=O)CNC(=O)[C@H](CCC(=O)O)NC(=O)C(C)(C)NC(=O)[C@@H](N)Cc1ccc(O)cc1)[C@@H](C)O)[C@@H](C)O)[C@@H](C)CC)C(=O)N[C@@H](C)C(=O)N[C@@H](CCC(N)=O)C(=O)NC(C)(C)C(=O)N[C@@H](CCCCNC(=O)COCCOCCNC(=O)COCCOCCNC(=O)CC[C@H](NC(=O)CCCCCCCCCCC)C(=O)O)C(=O)N[C@@H](Cc1ccccc1)C(=O)N[C@H](C(=O)N[C@H](CCC(=O)O)C(=O)N[C@@](C)(Cc1ccc(O)cc1)C(=O)N[C@@H](CC(C)C)C(=O)N[C@H](C(=O)N[C@@H](CCC(=O)O)C(=O)NCC(=O)NCC(=O)N1CCC[C@H]1C(=O)N[C@@H](CO)C(=O)N[C@@H](CO)C(=O)NCC(=O)N[C@@H](C)C(=O)N1CCC[C@H]1C(=O)N1CCC[C@H]1C(=O)N1CCC[C@H]1C(=O)N[C@@H](CO)C(N)=O)[C@@H](C)CC)[C@@H](C)CC)C(=O)O [Example 289]							94.9%	111%	0.017 nM	> 9950 nM	> 9950 nM	170%	96.7%		
	CCCCCCCCCCCC(=O)N[C@@H](CCC(=O)NCCOCCOCC(=O)NCCOCCOCC(=O)NCCCC[C@H](NC(=O)[C@H](CCCN)NC(=O)[C@H](CC(=O)O)NC(=O)[C@H](CC(C)C)NC(=O)[C@](C)(CC(C)C)NC(=O)[C@@H](NC(=O)[C@H](CO)NC(=O)[C@H](Cc1ccc(OC)cc1)NC(=O)[C@H](CC(=O)O)NC(=O)[C@H](CO)NC(=O)[C@@H](NC(=O)[C@](C)(Cc1ccccc1F)NC(=O)[C@@H](NC(=O)CNC(=O)[C@H](CCC(=O)O)NC(=O)C(C)(C)NC(=O)[C@@H](N)Cc1ccc(O)cc1)[C@@H](C)O)[C@@H](C)O)[C@@H](C)CC)C(=O)N[C@@H](C)C(=O)N[C@@H](CCC(N)=O)C(=O)NC(C)(C)C(=O)N[C@@H](CCC(=O)O)C(=O)N[C@@H](Cc1ccccc1)C(=O)N[C@H](C(=O)N[C@H](CCC(=O)O)C(=O)N[C@@](C)(Cc1ccc(O)cc1)C(=O)N[C@@H](CC(C)C)C(=O)N[C@H](C(=O)N[C@@H](CCCCNC(=O)COCCOCCNC(=O)COCCOCCNC(=O)CC[C@H](NC(=O)CCCCCCCCCCC)C(=O)O)C(=O)NCC(=O)NCC(=O)N1CCC[C@H]1C(=O)N[C@@H](CO)C(=O)N[C@@H](CO)C(=O)NCC(=O)N[C@@H](C)C(=O)N1CCC[C@H]1C(=O)N1CCC[C@H]1C(=O)N1CCC[C@H]1C(=O)N[C@@H](CO)C(N)=O)[C@@H](C)CC)[C@@H](C)CC)C(=O)O [Example 290]							93.4%			> 9950 nM	> 9950 nM	109%		0.878 nM	
	CCCCCCCCCCCC(=O)N[C@@H](CCC(=O)NCCOCCOCC(=O)NCCOCCOCC(=O)NCCCC[C@H](NC(=O)[C@H](CO)NC(=O)[C@@H]1CCCN1C(=O)[C@@H]1CCCN1C(=O)[C@@H]1CCCN1C(=O)[C@H](C)NC(=O)CNC(=O)[C@H](CO)NC(=O)[C@H](CO)NC(=O)[C@@H]1CCCN1C(=O)CNC(=O)CNC(=O)[C@H](CCC(=O)O)NC(=O)[C@@H](NC(=O)[C@H](CC(C)C)NC(=O)[C@](C)(Cc1ccc(O)cc1)NC(=O)[C@@H](CCC(=O)O)NC(=O)[C@@H](NC(=O)[C@H](Cc1ccccc1)NC(=O)[C@H](CCC(=O)O)NC(=O)C(C)(C)NC(=O)[C@H](CCC(N)=O)NC(=O)[C@H](C)NC(=O)[C@H](CCCCNC(=O)COCCOCCNC(=O)COCCOCCNC(=O)CC[C@H](NC(=O)CCCCCCCCCCC)C(=O)O)NC(=O)[C@H](CCCN)NC(=O)[C@H](CC(=O)O)NC(=O)[C@H](CC(C)C)NC(=O)[C@](C)(CC(C)C)NC(=O)[C@@H](NC(=O)[C@H](CO)NC(=O)[C@H](Cc1ccc(OC)cc1)NC(=O)[C@H](CC(=O)O)NC(=O)[C@H](CO)NC(=O)[C@@H](NC(=O)[C@](C)(Cc1ccccc1F)NC(=O)[C@@H](NC(=O)CNC(=O)[C@H](CCC(=O)O)NC(=O)C(C)(C)NC(=O)[C@@H](N)Cc1ccc(O)cc1)[C@@H](C)O)[C@@H](C)O)[C@@H](C)CC)[C@@H](C)CC)[C@@H](C)CC)C(N)=O)C(=O)O [Example 291]							92.9%		0.012 nM	> 9950 nM	> 9950 nM	100%	97.6%	0.833 nM	0.207 nM
6.26 nM	CCCCCCCCCCCC(=O)N[C@@H](CCC(=O)NCCOCCOCC(=O)NCCOCCOCC(=O)NCCCC[C@H](NC(=O)[C@H](CCCN)NC(=O)[C@H](CC(=O)O)NC(=O)[C@H](CC(C)C)NC(=O)[C@](C)(CC(C)C)NC(=O)[C@@H](NC(=O)[C@H](CO)NC(=O)[C@H](CCCCNC(=O)COCCOCCNC(=O)COCCOCCNC(=O)CC[C@H](NC(=O)CCCCCCCCCCC)C(=O)O)NC(=O)[C@H](CC(=O)O)NC(=O)[C@H](CO)NC(=O)[C@@H](NC(=O)[C@](C)(Cc1ccccc1F)NC(=O)[C@@H](NC(=O)CNC(=O)[C@H](CCC(=O)O)NC(=O)C(C)(C)NC(=O)[C@@H](N)Cc1ccc(O)cc1)[C@@H](C)O)[C@@H](C)O)[C@@H](C)CC)C(=O)N[C@@H](C)C(=O)N[C@@H](CCC(N)=O)C(=O)NC(C)(C)C(=O)N[C@@H](CCC(=O)O)C(=O)N[C@@H](Cc1ccccc1)C(=O)N[C@H](C(=O)N[C@H](CCC(=O)O)C(=O)N[C@@](C)(Cc1ccc(O)cc1)C(=O)N[C@@H](CC(C)C)C(=O)N[C@H](C(=O)N[C@@H](CCC(=O)O)C(=O)NCC(=O)NCC(N)=O)[C@@H](C)CC)[C@@H](C)CC)C(=O)O [Example 294] (H-Y[Aib]EGT[αMePhe(2-F)]TSDK([AEEA-AEEA-γGlu-Lauroyl])SI[αMeL]LD[Orn]K([AEEA-AEEA-γGlu-Lauroyl])AQ[Aib]EFI[dE][αMeY]LIEGG-NH2)								105%	0.00615 nM	> 9950 nM	> 9950 nM			0.833 nM	0.0665 nM
